The text below walks through data of US12410143B2, “Therapeutic inhibitors of the reverse mode of ATP synthase” (priority 2017, dated 2025).

pEC50: −log10 of the molar value. Entries after “also recorded” stand apart in the source; their conditions may differ. Where two headings read alike, the source gives them in different places. A value given as a limit tells only on which side of the number the result lay.

The target of data set [1] is T1, F1F0 ATP hydrolase (Bos taurus, UniProt P00829+P19483).
T1 construct: in NADH-linked and NADPH-linked sub-mitochondrial (SMP) assays respectively; host or cells: sub-mitochondrial particles (SMPs)
To be noted: cited from earlier work.

In data set [2] the test system is NCI-60 cancer cell lines. Kind of data set: NCI-60 one-dose in vitro assay. It counts as cell-based, human. The source says: FIGS. 1, 2, 3, 4, 5, 6 show results from the NCI-60 one-dose in vitro assay at the Developmental Therapeutics Program (DTP), at the National Cancer Institute (NCI, Bethesda, MD, USA). Its protocol is well known to those of the art, and it tests the effect, if any, of a test compound on the growth/survivability of a cancer cell line as compared to the no compound control. […] However, a constant is that this 59 always has representative cell lines from leukemia, melanoma and cancers of the lung, colon, brain, ovary, breast, prostate and kidney. In a one-dose NCI compound test report, NCI report a number for each cell line, which they call “Growth Percent”, which is its growth relative to the no-compound control, and relative to the time zero number of cells. This reported parameter allows detection of both growth inhibition (values between 0 and 100) and lethality (values less than 0). For example, an NCI “Growth Percent” value of 100 means no growth inhibition. Value of 40 means 60% growth inhibition. Value of 0 means no net growth over the course of the experiment. Value of −40 means 60% lethality. Value of −100 means all cells are dead. I don't present NCI one-dose data in this original format. Instead, if the NCI “Growth Percent” value for a cell is positive, it is manipulated: [100 minus this original NCI-60 “Growth Percent” data point], to yield the percentage “Growth Inhibition”. If the original NCI “Growth Percent” value for a cell is negative, it is made positive to be the percentage of original cancer cells (at time zero) killed: “Percentage Killed” {and in these cases, of course, all growth has been inhibited, so percentage “Growth Inhibition” is then specified to be 100% for this cancer cell line}. In my one-dose figures, “Growth Inhibition” (0-100%) is presented on the x-axis and, if applicable, “Percentage Killed” (0-100%) further along on the x-axis. The latter is applicable when there is not just cancer growth inhibition but a reduction in the number of cancer cells from the start time i.e. when the compound is not merely slowing cancer growth, but is actively reducing the number of cancer cells from the starting number. In cases where there is only growth inhibition, only “Growth inhibition” is presented on the x-axis.

Data set [3] relates to NCI-60 cancer cell lines. Kind of data set: NCI-60 five-dose in vitro assay. It counts as cell-based, human. Particulars: mean of all 59 cell lines. The source says:
The compounds of this invention act by a distinctly different mechanism, upon cancer cells, than oligomycin. […] The degree of (dis)similarity can be measured using the COMPARE algorithm, which employs a Pearson correlation coefficient. […] This mechanistic distinction is vital because polyketide F1F0 ATP synthase inhibitors are poisonous to normal cells, which means they fail in cancer xenograft mouse experiments and are without clinical utility.
Results from the NCI-60 five-dose in vitro assay at the Developmental Therapeutics Program (DTP), at the National Cancer Institute (NCI, Bethesda, MD, USA). In this assay, which is well known to those of the art, a compound is tested, in vitro, against 59 different cancer cell lines, sourced from 9 different tissue types, across 5 different concentrations. On the y-axis is the aforementioned “Growth Percentage” parameter used by NCI, which is growth relative to the no-compound control, and relative to the time zero number of cells. This parameter allows detection of both growth inhibition (values between 0 and 100) and lethality (values less than 0). […] Each cancer cell line has a GI50 value and the “mean GI50” of all 59 cell lines can be calculated.

Data set [4] relates to ex vivo rat heart. To be noted: 10 μM [11]; cited from earlier work.
The subject of data set [5] is mouse cortical neurons. Particulars: 100 μM [13]; cited from earlier work.
Data set [6] concerns the target T2, F1F0-ATP hydrolysis (Homo sapiens, UniProt P06576+P25705).
T2 construct: BTB06584 potency information (isn't an EC50) is from a whole cell study [13]
Particulars: cited from earlier work.

The target in data set [7] is T3, F1F0-ATP synthesis (Homo sapiens, UniProt P06576+P25705).
T3 construct: BTB06584 potency information (isn't an EC50) is from a whole cell study [13]
To be noted: [13]; cited from earlier work.

The subject of data set [8] is HL-1 cardiac muscle cell line. Particulars: 3 μM; HL-1 cells; data from [12]; cited from earlier work.
For data set [9], the system named is xenograft mouse models of cancer. Particulars: data in [16]; cited from earlier work.
The conditions of data set [10]: cited from earlier work.
Setting [11] is: Formula (I) examples, SMP data from [5], read-out: EC50 F1F0 ATP hydrolase.

Regarding `N#CN=C(Nc1cccc(Cl)c1Cl)NC(Cn1ccnc1)c1ccc(Cl)cc1Cl` (centres unmarked) [2,3-Cl2/CN], in data set [1] (setting [11]), the pEC50 is 5.60.
`N#CN=C(Nc1cccc(Cl)c1)NC(Cn1ccnc1)c1ccc(Cl)cc1Cl` (centres unmarked) [3-CL/CN]: in [1] (setting [11]), the pEC50 is 5.04.
For `CC(=O)Nc1ccc(S(=O)(=O)N2Cc3ccccc3N(Cc3cnc[nH]3)C(CCc3ccccc3)C2)cc1` (centres unmarked) [4-(AcNH)—Ph/SO2/5-yl], in [1] (Formula (II) examples, SMP data from [8], read-out: EC50F1F0ATP hydrolase), the pEC50 was 5.53.
On to `N#Cc1ccc(C(=O)N=C(Nc2ccc(Cl)cc2)NC(Cn2ccnc2)c2ccc(Cl)cc2Cl)cc1` (centres unmarked) [4-Cl/C(═O)4-CN—Ph], for which, in data set [1] (setting [11]), the pEC50 is 6.55.
`CCC(=O)N=C(Nc1ccc(Cl)cc1)NC(Cn1ccnc1)c1ccc(Cl)cc1Cl` (centres unmarked) [4-Cl/C(═O)Et]: in data set [1] (setting [11]), the pEC50 is 5.64.
Regarding `N#CN=C(Nc1ccc(Cl)cc1)NC(Cn1ccnc1)c1ccc(Cl)cc1Cl` (centres unmarked) [4-Cl/CN], in [1] (setting [11]), the pEC50 was 5.06.
Consider `N#Cc1cccc(C(=O)/N=C(\Nc2ccc(Cl)cc2)N[C@@H](Cn2ccnc2)c2ccc(Cl)cc2Cl)c1` [6a], for which, in [2] (10 μM), the “anti-cancer activity (NCI one-dose assay)” value (from here on “anti-cancer activity”) is recorded as “exerted anti-cancer activity”. Besides, in data set [1] (stereoisomers of 19a [5-6]), the “inhibits F1F0-ATP hydrolysis” value is reported as “not”.
Take `N#Cc1cccc(C(=O)/N=C(\Nc2ccc(Cl)cc2)NC(Cn2ccnc2)c2ccc(Cl)cc2Cl)c1` (centres unmarked) [19a]: the “anti-cancer activity” value in data set [2] (10 μM) is “more anti-cancer activity than BMS-199264”.
Broadly, the GI50 is the concentration at which growth is held to half of that of the control. A low value points to greater sensitivity of the cells. Turning to `CC1(C)Oc2ccc(S(=O)(=O)N3CCCCC3)cc2[C@@H](N(Cc2ncc[nH]2)c2ccc(Cl)cc2)[C@@H]1O.Cl` [BMS-199264 hydrochloride], the “anti-cancer activity” value in data set [2] (10 μM) and in data set [2] (100 μM) was “Anti-cancer activity” throughout. Also, in data set [3], the concentration for 50% growth inhibition (GI50) is 3.9 µM.
For `CC1(C)Oc2ccc(S(=O)(=O)N3CCCCC3)cc2[C@@H](N(Cc2ncc[nH]2)c2ccc(Cl)cc2)[C@@H]1O` [BMS-199264], the “anti-cancer activity” value in data set [2] (10 μM) was “exerts anti-cancer activity”. Besides, in [4], the “harm to normal cells (ex vivo rat heart)” value was “does not harm ex vivo rat heart; also recorded: doesn't harm normal cells”.
Turning to `O=C(Oc1cc(S(=O)(=O)c2ccccc2)ccc1[N+](=O)O)c1ccc(Cl)cc1` [BTB06584], the “anti-cancer activity” value is “No anti-cancer activity and none” in data set [2] (10 μM); “exerts anti-cancer activity” in data set [2] (100 μM). Further, the “harm to normal cells (mouse cortical neurons)” value in data set [5] is “isn't harmful to normal cells”. For the same molecule, the “inhibitory potency for F1F0-ATP hydrolysis” value in data set [6] (10 μM [13]) is listed as “none”. Moreover, the “concentration required for inhibiting F1F0-ATP hydrolysis” value in data set [6] (whole cell study [13]) was no less than 100 µM. Besides, in data set [7], the “inhibition of F1F0-ATP synthesis” value is listed as “not inhibiting F1F0-ATP synthesis”.
Turning to `CC[C@H]1/C=C/C=C/C[C@@H](C)[C@H](O)[C@@](C)(O)C(=O)[C@@H](C)[C@H](O)[C@@H](C)C(=O)[C@@H](C)[C@H](O)[C@@H](C)/C=C/C(=O)O[C@@H]2[C@H](C)[C@H](CC1)O[C@@]1(O[C@@H](C[C@@H](C)O)[C@@H](C)CC1=O)[C@H]2C` [Oligomycin B], the O2 consumption change in [8] is on record as −40%.
Regarding `CC[C@H](O)C[C@@H]1O[C@]2(CC[C@H]1C)C[C@@H]1OC(=O)/C=C/[C@](C)(O)[C@@H](O)[C@H](C)[C@@H](O)[C@@H](O[C@H]3C[C@@H](OC)[C@@H](O)[C@@H](C)O3)[C@H](O)[C@](C)(O)CCC/C=C\[C@H]3C[C@H](C)CO[C@@]3(O)C[C@H](O2)[C@H]1C` [cytovaricin], the “efficacy in xenograft mouse models of cancer” value in data set [9] is “don't work”.
Take `CC[C@H]1/C=C/C=C/C[C@@H](C)[C@H](O)[C@@](C)(O)C(=O)[C@@H](C)[C@H](O)[C@@H](C)C(=O)[C@@H](C)[C@H](O)[C@@H](C)/C=C/C(=O)O[C@@H]2[C@H](C)[C@H](CC1)O[C@]1(CC[C@H](C)[C@H](C[C@@H](C)O)O1)[C@H]2C` [oligomycin]: in [1] (SMP assays [11]), the “inhibition of F1F0 ATP hydrolysis versus F1F0 ATP synthesis” value is “inhibits F1F0 ATP hydrolysis less than F1F0 ATP synthesis”. Further, in data set [10] (1 mg/kg, n=10), the “time within which healthy rats are killed” value is no more than 48 h. The LD33 in [10] (rats) is 0.5 mg/kg.
For `CC[C@@H](O)C[C@H]1CCC[C@@]2(C[C@@H]3OC(=O)/C=C/[C@@](C)(O)[C@@H](O)[C@H](C)[C@@H](O)[C@H](O[C@H]4CC[C@H](N(C)C)[C@H](C)O4)[C@@H](O)[C@](C)(O)CCCCC/C=C/[C@@H]4CC(C)(C)O[C@@]4(O)C[C@H](O2)[C@H]3C)O1` [ossamycin], the “efficacy in xenograft mouse models of cancer” value in data set [9] was “don't work”.
